The test system of the assay is P388 leukemia ip, CD2F1 mice, survival T/C. Nature of the assay: NCI In Vivo Anticancer Drug Screen. Data for tumor model P388 Leukemia (intraperitoneal) in CD2F1 (CDF1) mice. To be noted: endpoint: median survival time, higher = longer survival. Summed up: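 Mice carrying the transplanted tumor received test compound or vehicle. Survival was recorded in each group, and the value is the treated-group measurement divided by that of the vehicle-treated control group.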

[1] abbreviates: dose: 6.25 mg/kg/injection, schedule: Q01DX009 (ip), vehicle: Klucel (hydroxypropylcellulose) (HPC).
[2] abbreviates: dose: 12.5 mg/kg/injection, schedule: Q01DX009 (ip), vehicle: Klucel (hydroxypropylcellulose) (HPC).
[3] abbreviates: dose: 25.0 mg/kg/injection, schedule: Q01DX009 (ip), vehicle: Klucel (hydroxypropylcellulose) (HPC).
The mark [4] stands for this setting: dose: 50.0 mg/kg/injection, schedule: Q01DX009 (ip), vehicle: saline.
[5] abbreviates: dose: 50.0 mg/kg/injection, schedule: Q01DX009 (ip), vehicle: saline with Tween-80.
The mark [6] stands for this setting: dose: 100.0 mg/kg/injection, schedule: Q01DX009 (ip), vehicle: saline with Tween-80.
The mark [7] stands for this setting: dose: 25.0 mg/kg/injection, schedule: Q01DX009 (ip), vehicle: saline with Tween-80.
[8] abbreviates: dose: 200.0 mg/kg/injection, schedule: Q01DX009 (ip), vehicle: saline with Tween-80.
Setting [9] is: dose: 50.0 mg/kg/injection, schedule: Q01DX005 (ip), vehicle: saline.
Setting [10] is: dose: 100.0 mg/kg/injection, schedule: Q01DX001 (ip), vehicle: Klucel (hydroxypropylcellulose) (HPC).

“And” between values parts separate entries of the source, which are not always exact repeats. Identical values can stand only once. Toxic doses and inconclusive results are not listed.

Regarding `Cn1cc(CCc2cc[n+](CCC[n+]3ccc(CCc4cn(C)c5ccccc45)cc3)cc2)c2ccccc21`, the T/C is 104 % of control under setting [1] and 106 % of control under setting [2].

Turning to `C[N+]1(C)CCC(=O)C(c2ccccc2)C1` (centres undefined), the T/C reads like this: (dose: 50.0 mg/kg/injection, schedule: Q04DX003 (ip), vehicle: saline) 113 % of control; (dose: 100.0 mg/kg/injection, schedule: Q04DX003 (ip), vehicle: saline) 113 % of control.

On to `COc1ccc(-n2c(C)c(COC(=O)NC(C)C)c(COC(=O)NC(C)C)c2C)cc1`, for which the T/C runs as follows: (dose: 20.0 mg/kg/injection, schedule: Q01DX005 (ip), vehicle: Klucel (hydroxypropylcellulose) (HPC)) 163 % of control; (dose: 40.0 mg/kg/injection, schedule: Q01DX005 (ip), vehicle: Klucel (hydroxypropylcellulose) (HPC)) 172 % of control; (dose: 60.0 mg/kg/injection, schedule: Q01DX005 (ip), vehicle: Klucel (hydroxypropylcellulose) (HPC)) 150 % of control and 186 % of control; (dose: 120.0 mg/kg/injection, schedule: Q01DX005 (ip), vehicle: Klucel (hydroxypropylcellulose) (HPC)) 181 % of control.

Turning to `C[N+](C)(Cc1ccc(Br)cc1)C1c2ccccc2-c2ccccc21`, the T/C reads like this: under setting [2], 107 % of control; under setting [3], 108 % of control; (dose: 50.0 mg/kg/injection, schedule: Q01DX009 (ip), vehicle: Klucel (hydroxypropylcellulose) (HPC)) 115 % of control and 98 % of control.

Regarding `NCCNCC[OH2+].NCCNCC[OH2+].[Ni+2].[O-][Cl+3]([O-])([O-])[O-]`, the T/C by setting is: (dose: 12.5 mg/kg/injection, schedule: Q01DX009 (ip), vehicle: saline) 100 % of control; (dose: 25.0 mg/kg/injection, schedule: Q01DX009 (ip), vehicle: saline) 93 % of control; under setting [4], 106 % of control and 93 % of control.

Regarding `Cc1ccccc1CC(C)c1ccccc1` (centres undefined), the T/C is 100 % of control under setting [5] and 123 % of control under setting [6].

Regarding `COC1/C=C/OC2(C)Oc3c(C)c(O)c4c(O)c(c(/C=N/N5C(C)CN(Cc6ccc(NC(C)=O)cc6)CC5C)c(O)c4c3C2=O)NC(=O)C(C)=C/C=C/C(C)C(O)C(C)C(O)C(C)C(OC(C)=O)C1C` (centres undefined), the T/C (dose: 12.5 mg/kg/injection, schedule: Q01DX009 (ip), vehicle: suspension in saline) was 110 % of control; the T/C under setting [7] is 119 % of control; the T/C (dose: 25.0 mg/kg/injection, schedule: Q01DX009 (ip), vehicle: suspension in saline) is 110 % of control; the T/C under setting [5] is 99 % of control; the T/C (dose: 50.0 mg/kg/injection, schedule: Q01DX009 (ip), vehicle: suspension in saline) is 108 % of control; the T/C under setting [6] is 99 % of control and 103 % of control. The T/C is, setting by setting: (dose: 100.0 mg/kg/injection, schedule: Q01DX009 (ip), vehicle: suspension in saline) 99 % of control; under setting [8], 110 % of control and 119 % of control.

Regarding `C[C@@H]1CC2=CC(=O)CC[C@@H]2[C@H]2CC[C@@]3(C)[C@@H](CC[C@]3(C)O)[C@@H]21`, the T/C is 100 % of control under setting [7]; 100 % of control (dose: 25.0 mg/kg/injection, schedule: Q04DX003 (ip), vehicle: saline with Tween-80); 105 % of control under setting [5]; 91 % of control (dose: 50.0 mg/kg/injection, schedule: Q04DX003 (ip), vehicle: saline with Tween-80); 105 % of control under setting [6]; 104 % of control (dose: 100.0 mg/kg/injection, schedule: Q04DX003 (ip), vehicle: saline with Tween-80). Besides, the T/C is, setting by setting: (dose: 200.0 mg/kg/injection, schedule: Q04DX003 (ip), vehicle: saline with Tween-80) 100 % of control; (dose: 400.0 mg/kg/injection, schedule: Q04DX003 (ip), vehicle: saline with Tween-80) 90 % of control.

Regarding `C/C=C/C=c1/[nH]c(=O)/c(=C\C)[nH]c1=O`, the T/C by setting is: (dose: 50.0 mg/kg/injection, schedule: Q04DX003 (ip), vehicle: Klucel (hydroxypropylcellulose) (HPC)) 100 % of control; (dose: 100.0 mg/kg/injection, schedule: Q04DX003 (ip), vehicle: Klucel (hydroxypropylcellulose) (HPC)) 98 % of control; (dose: 200.0 mg/kg/injection, schedule: Q04DX003 (ip), vehicle: Klucel (hydroxypropylcellulose) (HPC)) 90 % of control.

For `CNc1cn(C2OC(CO)C(O)C2O)c(=O)[nH]c1=O` (centres undefined), the T/C runs as follows: under setting [9], 122 % of control; (dose: 100.0 mg/kg/injection, schedule: Q01DX005 (ip), vehicle: saline) 110 % of control; (dose: 200.0 mg/kg/injection, schedule: Q01DX005 (ip), vehicle: saline) 105 % of control.

For `O=C(O)Cc1cn2ccncc2n1`, the T/C was 90 % of control under setting [10]; 101 % of control (dose: 200.0 mg/kg/injection, schedule: Q01DX001 (ip), vehicle: Klucel (hydroxypropylcellulose) (HPC)); 101 % of control (dose: 400.0 mg/kg/injection, schedule: Q01DX001 (ip), vehicle: Klucel (hydroxypropylcellulose) (HPC)).

On to `CCOC(=O)COc1cc2c(cc1C(C)c1cc(OC)c(OC)c(OC)c1)OCO2` (centres undefined), for which the T/C was 100 % of control (dose: 50.0 mg/kg/injection, schedule: Q01DX005 (ip), vehicle: saline with Tween-80); 105 % of control (dose: 100.0 mg/kg/injection, schedule: Q01DX005 (ip), vehicle: saline with Tween-80); 99 % of control (dose: 200.0 mg/kg/injection, schedule: Q01DX005 (ip), vehicle: saline with Tween-80).

With `Cc1cccc(C2(C)C(=O)c3ccccc3C2=O)c1`, the T/C reads like this: (dose: 100.0 mg/kg/injection, schedule: Q04DX002 (ip), vehicle: saline) 100 % of control; (dose: 200.0 mg/kg/injection, schedule: Q04DX002 (ip), vehicle: saline) 105 % of control; (dose: 400.0 mg/kg/injection, schedule: Q04DX002 (ip), vehicle: saline) 102 % of control.

Take `CN(C)Cc1nsc(N(C)C)n1`: the T/C was 100 % of control (dose: 50.0 mg/kg/injection, schedule: Q01DX005 (ip), vehicle: Klucel (hydroxypropylcellulose) (HPC)); 97 % of control (dose: 100.0 mg/kg/injection, schedule: Q01DX005 (ip), vehicle: Klucel (hydroxypropylcellulose) (HPC)); 93 % of control (dose: 200.0 mg/kg/injection, schedule: Q01DX005 (ip), vehicle: Klucel (hydroxypropylcellulose) (HPC)).

As to `COc1c(Br)cnc2ccccc12`, the T/C runs as follows: (dose: 12.5 mg/kg/injection, schedule: Q01DX009 (ip), vehicle: distilled water + Tween-80) 96 % of control; (dose: 25.0 mg/kg/injection, schedule: Q01DX009 (ip), vehicle: distilled water + Tween-80) 96 % of control; (dose: 50.0 mg/kg/injection, schedule: Q01DX009 (ip), vehicle: distilled water + Tween-80) 102 % of control; (dose: 100.0 mg/kg/injection, schedule: Q01DX009 (ip), vehicle: distilled water + Tween-80) 102 % of control; (dose: 200.0 mg/kg/injection, schedule: Q01DX009 (ip), vehicle: distilled water + Tween-80) 93 % of control.

On to `CC(C(=O)O)c1cccc2nc(-c3ccccc3)oc12` (centres undefined), for which the T/C is 112 % of control under setting [6] and 102 % of control under setting [8].

Regarding `CN1c2ccccc2C(C)(C)C12C=Cc1cc(O)ccc1O2` (centres undefined), the T/C is, setting by setting: under setting [4], 93 % of control; (dose: 100.0 mg/kg/injection, schedule: Q01DX009 (ip), vehicle: saline) 96 % of control; (dose: 200.0 mg/kg/injection, schedule: Q01DX009 (ip), vehicle: saline) 113 % of control.

Regarding `Cn1c(=O)c2c(nnc(-c3ccc(Cl)cc3)[n+]2[O-])n(C)c1=O`, under setting [10], the T/C was 106 % of control.

Consider `CN(C)CCc1ccc2ccc3cccc4ccc1c2c34`, for which the T/C under setting [5] is 107 % of control, the T/C under setting [6] was 102 % of control and the T/C under setting [8] was 108 % of control.

`COc1cc(O)c(C/C=C/c2ccccc2)cc1O`: the T/C is, setting by setting: (dose: 2.5 mg/kg/injection, schedule: Q01DX009 (ip), vehicle: saline with Tween-80) 102 % of control; (dose: 5.0 mg/kg/injection, schedule: Q01DX009 (ip), vehicle: saline with Tween-80) 105 % of control; (dose: 10.0 mg/kg/injection, schedule: Q01DX009 (ip), vehicle: saline with Tween-80) 103 % of control.

Turning to `CNCC(=O)c1ccc(O)c(O)c1N=O`, the T/C is 114 % of control (dose: 100.0 mg/kg/injection, schedule: Q04DX002 (ip), vehicle: saline with Tween-80); 108 % of control (dose: 200.0 mg/kg/injection, schedule: Q04DX002 (ip), vehicle: saline with Tween-80); 108 % of control (dose: 400.0 mg/kg/injection, schedule: Q04DX002 (ip), vehicle: saline with Tween-80).

For the molecule `C=C1CCCC2CCC[N+](C)(CC(=O)OCC)C12` (centres undefined), under setting [9], the T/C was 93 % of control.

As to `N#CC(O)COc1nsnc1N1CCOCC1` (centres undefined), the T/C runs as follows: under setting [1], 108 % of control; under setting [2], 106 % of control; under setting [3], 105 % of control.

The record behind these values is PubChem BioAssay AID330 (DTP/NCI, 2004).
